The values below come from patent publication US20040081655A1, “Methods and compositions comprising polycationic compounds” (priority 2001, published 2004).

No end group written: not given here.

Series [1] is described as follows: Depot formation at the injection site, fluorescence-labelled compounds, photos (Example 2a). Also noted: species or system Mice C57Bl/6. Conditions: mouse, in vivo, sc. How it is done: On day 0 mice were injected subcutaneously into the right flank with a total volume of 100 μl containing the above mentioned compounds. Animals were sacrificed at the indicated time points after injection and photos were taken from the injection sites (FIG. 2a).

Series [2] in a line: FACS analyses of lymphoid and non-lymphoid tissues for CpG-ODN-Cy5 (Example 2b). Also noted: species or system Mice C57B1/6. Conditions: mouse, in vivo, sc. How it is done: Mice were injected subcutaneously into the right flank with a total volume of 100 μl containing the above mentioned compounds. One day after injection, mice were sacrificed and FACS-analyses were performed from secondary lymphoid organs (draining lymph node, spleen) as well as non-lymphoid tissues (lung, liver, kidney, heart) (FIG. 2b).

Series [3] can be described thus: Depot formation at the injection site at day 4, labelled TRP-2 peptide/pR60/CpG-ODN (Example 3). Format: in vivo, Mice C57Bl/6. The note with it: injected either alone or in combination with CpG-ODN-Cy5. How it is done: On day 0 mice were injected subcutaneously into the right flank with a total volume of […] containing the above mentioned compounds. Animals were sacrificed at day 4 after injection and photos were taken from the injection sites (FIG. 3).

For series [4], the system named is CD11c+ sorted BM-DC. Nature of the series: CpG-ODN-induced production of TNF-α and IL-6 by murine BM-DC in vitro, poly-L-arginine (Example 5). It is filed as cell-based, C57Bl/6 mice. The note with it: substance alone (poly-L-arginine 10 μg/ml; CpG-ODN 1668 1 nmol/ml), 24 h, supernatant ELISA. Here is the method: (§1) Murine dendritic cells (DC) were generated from bone-marrow precursor cells of C57Bl/6 mice as previously described (Inaba 1992). Briefly, bone marrow cells were obtained by flushing the femurs and tibias with medium. Cells were depleted of lymphocytes, granulocytes and MHC class II^+cells by Ab-complement-mediated lysis. Dead cells were removed by Ficoll gradient (Ficoll Separating Solution, density […]; Biochrom KG, Germany). The remaining cells (1×10^6/ml) were cultured in 24-well culture plates in high glucose DMEM medium (PAA Laboratories GmbH, Linz, Austria; E 15-009) supplemented with 10% heat-inactivated FCS, 10. mM sodium pyruvate, 2 mM L-glutamine, […] gentamicin, 0.5 mM 2-mercaptoethanol (all supplements from PAA Laboratories GmbH, Linz, Austria), 20 ng/ml GM-CSF and 250 U/ml IL-4. On day 3 of culture, cells were fed with fresh medium. On day 6 of culture, non-adherent cells and loosely adherent aggregates were harvested, washed and re-plated in 6-well culture plates (2×10^6/5 ml). After additional 1 day of culture, non-adherent cells were collected for analyses. […] For in vitro-stimulations, day 7-cultured bone marrow cells were further enriched for CD11c^+ cells (=DC) using magnetic beads (Miltenyi, Bergisch-Gladbach, Germany). The purity of BM-DC was more than 95% as determined by flow cytometry analyses. […] Supernatants were harvested after 24 h and analysed for the production of TNF-α and IL-6 using specific ELISAs.

For series [5], the system named is CD11c+ sorted BM-DC. In words: CpG-ODN-induced production of TNF-α and IL-6 by murine BM-DC in vitro, KLK (Example 7). Format: cell-based, C57B1/6 mice. Conditions: substance alone (KLK 16, 8 μg/ml; CpG-ODN 1668 0.5 nmol/ml); 24 h; supernatant ELISA. How it is done:
as §1
Murine dendritic cells (DC) were generated from bone-marrow precursor cells of C57B1/6 mice as described in example 5.

For a further series, the system named is TNF-a and IL-6. Nature of the series: BCG/CpG-ODN-induced systemic production of TNF-a and IL-6 in vivo, serum ELISA (Example 8). Conditions: one hour after s.c. injection into the flank; ELISA. Also noted: species or system Mice C57Bl/6. Here is the method: Mice were injected subcutaneously into the flank with a total volume of 100 μl, containing the above mentioned compounds. One hour after injection blood was taken from the tail-vein and serum was prepared. The amount of the pro-inflammatory cytokines TNF-a and IL-6 in the sera was determined by cytokine-specific ELISAs according to the manufacturer's instructions (R&D Systems, Inc., Minneapolis, Minn.).

On to “CpG-ODN-Cy5: phosphothioate-modified, Cy5-labeled oligodinucleotides containing a CpG motif: tcc atg acg ttc ctg atg ct (DNA TCCATGACGTTCCTGATGCT; DNA, all phosphorothioate, methylation of C not given here; Cy5 label)”, for which the “distribution of CpG-ODN-Cy5 after injection” value in series [1] is “distribution of CpG-ODN-Cy5 all over the skin”. In series [2], the “CpG-ODN-Cy5 in secondary lymphoid organs and non-lymphoid tissues (FACS)” value is “detectable in secondary lymphoid organs (draining lymph node, spleen) and non-lymphoid tissues (lung, liver, kidney, heart)”.
Regarding “TRP-2181-188-peptide-FITC: FITC-labeled TRP-2-Peptide (VYDFFVWL), MHC class I (H-2 Kb) restricted epitope of mouse tyrosinase related protein-2 (also: FITC label, site not given here)”, in series [3], the “presence of the labelled peptide at the injection site” value is listed as “not detectable at the injection site at day 4”.
For the substance “tcc atg acg ttc ctg atg ct (TCCATGACGTTCCTGATGCT; chemistry not given here) [CpG-ODN 1668, phosphothioate-modified oligodinucleotides containing a CpG-motif, reference compound]”, in the series with CD11c+ sorted BM-DC [4] (listed as CPG-ODN 1668), the “production of IL-6 by murine BM-DC” value is given as “induces the production” and the “production of TNF-α by murine BM-DC” value is listed as “induces the production”. Further, in the series on CD11c+ sorted BM-DC [4] (listed as CpG-ODN), the “production of IL-6 by murine BM-DC” value is “significant amounts of both cytokines are produced” and the “production of TNF-α by murine BM-DC” value was “significant amounts of both cytokines are produced”. Besides, in the series on CD11c+ sorted BM-DC [5], the “production of IL-6 by murine BM-DC” value is recorded as “induces the production” and the “production of TNF-a by murine BM-DC” value is “induces the production”. For the same substance, in the series with TNF-a and IL-6, the “production of IL-6 in serum after injection” value is listed as “induces the systemic production” and the “production of TNF-a in serum after injection” value was “induces the systemic production”.
